We go through three compounds from paper PMC7681098 (Theranostics, 2021).

Read-outs that look alike come from different tables or passages of the source. A value given as a limit tells only on which side of the number the result lay.

In assay [1] the test system is MOLM13 cells. As to the kind of experiment: Stroma-protecting model: proliferation in HS-5 conditional medium or normal medium. Format: cell-based. Conditions: Homo sapiens. The procedure:
At the indicated time point, cell viability was evaluated by MTT assay.
(A) Indicated FLT3 mutations were expressed in BaF3 cells respectively. […] The autophosphorylation level of FLT3 was visualized and compared by western blot analysis. […] The CM was prepared from HS-5 cell culture for 4 days under routine culture conditions, clarified by centrifugation, and used immediately. The CM was added to complete medium at a final concentration of 40%. Cell viabilities were measured by MTT assay. Data were shown as mean±SD. […] The FLT3 phosphorylation levels of FLT3, STAT5 and ERK 1/2 were determined by Western blot.
On the other hand, the bone marrow stroma-protecting environment containing a number of cytokines (e.g. FLT3 ligand, stromal derived factor-1, etc) could also decrease the drug efficacy of FLT3 inhibitors by activating FLT3 or its downstream effectors and building cross-talk between leukemic blasts and bone marrow microenvironment, [35].

The subject of assay [2] is MV4-11. As to the kind of experiment: Cell proliferation MTT assay. The note with it: Homo sapiens, 72 h, read-out: Human leukemia cell line IC50 MV4-11. The class given is cell-based. The procedure:
(§1) The conditional medium (CM) was prepared from the supernatant of HS-5 cell culture for 5 days under normal culture conditions. At the indicated time point, cell viability was evaluated by MTT assay.
Background: Formazan colour is commonly taken as a measure of viable cells.

Assay [3] has as its system THP-1. As to the kind of experiment: Cell proliferation MTT assay. The class given is cell-based. Conditions: Homo sapiens, 72 h, wild-type FLT3, read-out: Human leukemia cell line IC50 THP-1. The protocol: as §1
The test system of assay [4] is MOLM13. As to the kind of experiment: Cell proliferation MTT assay. Conditions: Homo sapiens, MOLM-13, 72 h, read-out: Human leukemia cell line IC50 MOLM13. The class given is cell-based. The procedure: as §1
Assay [5] relates to U937. As to the kind of experiment: Cell proliferation MTT assay. The class given is cell-based. Conditions: Homo sapiens, U-937, 72 h, wild-type FLT3, read-out: Human leukemia cell line IC50 U937. The procedure:
as §1

Assay [6] concerns the target T1, ERK1 (Homo sapiens, UniProt P27361).
T1 construct: purchased Reaction Biology Corporation (PA, USA)
As to the kind of experiment: Kinase inhibition assay (Reaction Biology). The class given is biochemical. Conditions: 10 μM ATP, 10-dose IC50 mode.

For assay [7], the system named is MV4-11 cells. As to the kind of experiment: Bone marrow engrafted model, survival. The class given is in vivo, NOD-SCID mice. Conditions: MV4-11 bone marrow engraftment; LT-171-861 10 mg/kg every other day, sorafenib orally every day. The protocol: Six-week-old female NOD-SCID mice were treated with sub-lethal dose radiation (1.8 Gy) before intravenous injection of MV4-11 cells (5×10^6) or MOLM13 cells (5×10^6).
Data were shown as mean±SD. […] Data were shown as mean±SD. (C) An engrafted tumor model was used to evaluate in vivo antitumor activity. The NOD/SCID mice were intravenously inoculated with MV4-11 cells. […] Log-rank testing was used to compare survival curves among treatment groups. […] (D) Apoptotic assays in engraft model were evaluated by TUNEL assay and cell proliferative activity was measured by Ki67 assay. Images were acquired at ×40 magnification. (E) BALB/c nude mice were subcutaneously inoculated with MV4-11 cells (5×10^6) and bodyweight of each mouse was recorded every other day. (F) Representative photo of tumors from BALB/c nude mice which were inoculated with MV4-11 cells. (G) BALB/c nude mice were subcutaneously inoculated with BaF3 cells bearing FLT3-ITD-N676D (n=6) and FLT3-ITD-F691L (n=6) respectively. […] (H) BALB/c mice were intravenously inoculated with cells used in (G). […] Log-rank testing was used to compare survival curves among treatment groups. […] (I) Representative photos of spleens dissected from mice in (H) inoculated with BaF3 cells bearing FLT-3-ITD-F691L.
Mice that received vehicle treatment died within 30 days after intravenous injection of MV4-11 cells.

For assay [8], the system named is BaF3 cells with FLT3-D835Y. As to the kind of experiment: Cell viability of transformed BaF3 cells. The class given is cell-based, murine. The note with it: Mus musculus, read-out: BaF3 cells with FLT3 mutants IC50 D835Y. The procedure:
(§2) Lentivirus packaging and construction of transformed BaF3 cells were performed as described previously. […] Supernatants were collected and used to infect BaF3 cells, and transduced BaF3 cells were selected with puromycin (1 μg/ml) to obtain stably transformed cells.
as §1

The test system of assay [9] is BaF3 cells with FLT3-ITD/D835Y. As to the kind of experiment: Cell viability of transformed BaF3 cells. The class given is cell-based, murine. The note with it: Mus musculus, BaF3; cell viability; read-out: BaF3 cells with FLT3 mutants IC50 ITD-D835Y. The procedure: as §2, §1
Assay [10] has as its system BaF3 cells with FLT3-ITD. As to the kind of experiment: Cell viability of transformed BaF3 cells. Conditions: Mus musculus, read-out: BaF3 cells with FLT3 mutants IC50 ITD. Format: cell-based, murine. The protocol:
as §2, §1

The subject of assay [11] is BaF3 cells with FLT3-ITD/N676D. As to the kind of experiment: Cell viability of transformed BaF3 cells. Format: cell-based, murine. The note with it: Mus musculus, read-out: BaF3 cells with FLT3 mutants IC50 ITD-N676D. The procedure: as §2, §1
Assay [12] deals with BaF3 cells with FLT3-ITD/F691L. As to the kind of experiment: Cell viability of transformed BaF3 cells. Format: cell-based, murine. The note with it: Mus musculus, read-out: BaF3 cells with FLT3 mutants IC50 ITD-F691L. The protocol: as §2, §1
Assay [13] concerns BaF3 cells with FLT3-ITD/Y842C. As to the kind of experiment: Cell viability of transformed BaF3 cells. Format: cell-based, murine. Conditions: Mus musculus, read-out: BaF3 cells with FLT3 mutants IC50 ITD-Y842C. The protocol: as §2, §1

T1 sequence (P27361 whole entry): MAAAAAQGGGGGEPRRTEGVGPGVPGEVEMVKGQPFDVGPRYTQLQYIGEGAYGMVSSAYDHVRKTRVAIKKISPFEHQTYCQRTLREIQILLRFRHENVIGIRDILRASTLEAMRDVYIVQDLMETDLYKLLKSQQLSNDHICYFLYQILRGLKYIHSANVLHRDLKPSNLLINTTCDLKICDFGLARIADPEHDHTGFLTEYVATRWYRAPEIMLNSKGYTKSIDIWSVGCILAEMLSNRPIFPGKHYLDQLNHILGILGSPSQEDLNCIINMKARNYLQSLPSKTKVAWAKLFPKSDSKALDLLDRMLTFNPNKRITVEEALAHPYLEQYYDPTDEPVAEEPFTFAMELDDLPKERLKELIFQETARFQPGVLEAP

Take `CC(C)(C)c1cc(NC(=O)Nc2ccc(-c3cn4c(n3)sc3cc(OCCN5CCOCC5)ccc34)cc2)no1` [AC220]: the IC50 in assay [1] (MOLM-13, 72 h, read-out: IC50 proliferation of MOLM13 cells in CM) was 116 nM; in [1] (MOLM-13, 72 h, read-out: IC50 proliferation of MOLM13 cells in NM), 14.1 nM; in assay [2], 1.5 nM; in [3], more than 1000 nM; in assay [4], 1.2 nM; in assay [5], more than 1000 nM.
With `O=C(Nc1ccc2[nH]nc(-c3ccncc3)c2c1)[C@@H]1CCN(CC(=O)N2CCN(c3ccc(-c4ncccn4)cc3)CC2)C1` [SCH772984, reference compound], the IC50 in assay [6] stood at 4.9 nM.
With `CNC(=O)c1cc(Oc2ccc(NC(=O)Nc3ccc(Cl)c(C(F)(F)F)c3)cc2)ccn1` [Sorafenib, reference compound], the IC50 in assay [1] (MOLM-13, HS-5 conditional medium (CM) 40%, 72 h, MTT, read-out: IC50 proliferation of MOLM13 cells in CM) is 1460 nM; in assay [1] (MOLM-13, normal medium (NM), 72 h, MTT, read-out: IC50 proliferation of MOLM13 cells in NM) it was 11.3 nM; in assay [2], 3.2 nM; in assay [3], more than 1000 nM; in assay [4], 5.3 nM; in assay [5], more than 1000 nM. Further, the IC50 in assay [8] worked out at 235 nM; in assay [9], 878 nM; in [10], 13.2 nM; in [11], 103 nM; in assay [12] it was 45.2 nM; in [13], 346 nM. The survival versus vehicle result in assay [7] is given as “increased survival rates”.
